Experimental data reported in patent US6576464B2, “Methods for providing differentiated stem cells” (Geron Corporation, priority 2000, dated 2003).

Legend:
hTERT = hTERT expression by RT-PCR after exposure to differentiation factors; format: cell-based, human; conditions: after exposure of hES cells to the factor
Description: For radioactive relative quantification of individual gene products, QuantumRNA™ Alternate18S Internal Standard primers (Ambion, Austin Tex., USA) were employed according to the manufacturer's instructions. Briefly, the linear range of amplification of a particular primer pair was determined, then coamplified with the appropriate mixture of alternare18S primers:competimers to yield PCR products with coinciding linear ranges. Before addition of AmpliTaq™ (Roche) to PCR reactions, the enzyme was pre-incubated with the TaqStart™ antibody (ProMega) according to manufacturer's instructions. Radioactive PCR reactions were analyzed on 5% non-denaturing polyacrylamide gels, dried, and exposed to phosphoimage screens (Molecular Dynamics) for 1 hour. Screens were scanned with a Molecular Dynamics Storm 860 and band intensities were quantified using ImageQuant™ software. Results are expressed as the ratio of radioactivity incorporated into the hTERT or OCT-4 band, standardized to the radioactivity incorporated into the 18s band.
Primers and amplification conditions for particular markers are as follows.

H1 hES cells = test: Stable transfection of feeder-free hES cells with geneticin selection; format: cell-based, human; conditions: 200 μg/mL in mEF-conditioned medium
Description: To investigate whether the feeder-free hES cells undergo stable genetic modification, H1 hES cells maintained on Matrigel® were cotransfected with a mixture of 7.5 μg plasmid carrying β-galactosidase driven by the EF1a promoter, and 2.5 μg of plasmid carrying the PGK promoter driving the neophosphotransferase gene. The cells were transfected 48 h after plating them on Matrigel® in mEF-conditioned medium. 10 μg of plasmid plus 15 μl of FuGENE™ were incubated with the cells in 1 mnL for 4 h before adding 2.5 mL of mEF-conditioned medium. After 48 h, medium was exchanged for mEF-conditioned medium supplemented with 200 μg/mL geneticin. Cultures were maintained in this geneticin-containing medium with daily medium exchange for over 21 days. All mock-transfected cultures (i.e., those that received FUGENE™ mixed with water rather than plasmid) died within 48-72 h. Drug resistant colonies arose in the wells transfected with both FUGENE™ and plasmid at a frequency of about 1 in to 10^5 originally transfected cells. The colonies were maintained in geneticin-containing mEF-conditioned medium and expanded.

[1] = tested on: tumor lines 143B, 293, HT1080, Bxpc-3', DAOY and NIH3T3; test: Ganciclovir treatment in vitro of tk+ tumor lines carrying hTERT promoter/tk constructs; format: cell-based; conditions: tk/+ stable clones or mass populations with pGRN266, pGRN267, pGRN268
Description: (§1) The ability of the hTERT promoter to specifically drive the expression of the thymidine kinase (tk) gene in tumor cells was tested using a variety of constructs: One construct, designated pGRN266, contains an EcoRI-FseI PCR fragment with the tk gene cloned into the EcoRI-FseI sites of pGRN263. pGRN263, containing approximately 2.5 kb of hTERT promoter sequence, is similar to pGRN150, but contains a neomycin gene as selection marker. pGRN267 contains an EcoRI-FseI PCR fragment with the tk gene cloned into the EcoRI-FseI sites of pGRN264. pGRN264, containing approximately 210 bp of hTERT promoter sequence, is similar to pGRN176, but contains a neomycin gene as selection marker. pGRN268 contains an EcoRI-XbaI PCR fragment with the tk gene cloned into the EcoRI-XbaI (unmethylated) sites of pGRN265. pGRN265, containing approximately 90 bp of hTERT promoter sequence, is similar to pGRN175, but contains a neomycin gene as selection marker.
(§2) These hTERT promoter/tk constructs, pGRN266, pGRN267 and pGRN268, were reintroduced into mammalian cells and tk/+stable clones (and/or mass populations) were selected. […] Ganciclovir treatment had no effect on normal BJ cells.

normal BJ cells = test: Ganciclovir treatment in vitro of normal cells carrying hTERT promoter/tk constructs; format: cell-based
Description: as §1, §2

[2] = tested on: Undifferentiated H1 hES cells; test: Titration of GCV in TPAC vector treated hES cells; format: cell-based, human; conditions: hES cells transduced with pGRN376 at MOI 30; 5, 10, 20, 30, 40 μM tested; day 2
Description: Undifferentiated H1 cells were plated into 24 well plates (1 confluent well of a 6 well plate split into 24 wells of a 24 well plate). After 48 h, some wells were infected with pGRN376 at an MOI of 30. Four h after addition of the viral vector, medium was exchanged for new mEF-CM; some wells received medium supplemented with 5, 10, 20, 30, or 40 μM ganciclovir (GCV). Cells exposed to GCV were re-fed with MEF-CM containing GCV daily for 2 days. On day 2 after the initiation of GCV treatment, wells were harvested and analyzed by flow cytometry to assess changes in total cell number, and cell viability (measured by PI exclusion).

[3] = tested on: Undifferentiated hES lines H1 and H7; test: Comparison of hES lines: total cell number after pGRN376 and GCV; format: cell-based, human; conditions: mock-transduced cells
Description: Undifferentiated hES of lines designated H1 and H7 cells were plated into 24 well plates (1 confluent well of a 6 well plate split into 24 wells of a 24 well plate). […] Four h after addition of the viral vector, medium was exchanged for new mEF-CM; some wells received medium supplemented with 20 AM GCV. Cells exposed to GCV were re-fed with mEF-CM containing GCV daily for 3 days. On day 4 after the initiation of GCV treatment, wells were harvested and analyzed by flow cytometry to assess changes in total cell number.

H9 hES cell line clones = test: Ganciclovir sensitivity screen of stable GRN376mod-transfected hES clones; format: cell-based, human; conditions: ten of ninety GRN376mod clones; ganciclovir at a concentration of 30 μg
Excerpt: To facilitate creation of stable cell lines genetically altered with the hTERT promoter/thymidine kinase construct, plasmid pGRN376 (Example X) was modified to delete most of the adenovirus sequence. The plasmid was digested with Stul and Not I, followed by blunting and re-ligation. The remaining vector contained the hTERT promoter/thymidine kinase construct, preceded by the transcription blocking sequence to prevent promotion of tk gene expression by promoter sequences upstream from the integration site in the genome. The modified vector was designated pGRN376mod.
Cultures of the H9 hES cell line were split 1:4 using PBS containing 0.5 mM EDTA, as described earlier, and plated in feeder-free culture in 6-well plates. Twenty-four hrs after plating, cells were cotransfected with 2 μg GRN376mod plus 0.5 μg of a plasmid encoding neomycin pho, using FuGENETM-6 as described above. Medium containing 200 μg/mL geneticin was added 48 h after transfection to select out transfected cells. After 7-10 days in geneticin-containing medium, 103 individual colonies were picked from the wells and individually plated in 24-well plates, which were then expanded by culturing for ˜7 days. Ninety individual clones were screened for sensitivity to the pro-drug ganciclovir at a concentration of 30 μg. […]

hES cells = test: Neuron formation from directly differentiated hES cells with neurotrophin growth factors (count of β-tubulin positive cells); format: cell-based, human; conditions: fixed after 7 days of differentiation
Description: The effect of several members of the neurotrophin growth factor family was examined. hES cells were differentiated by harvesting with collagenase, dissociating, and reseeding onto poly-ornithine coated cover slips. The cells were plated into DMEM/F12+N2+10% FBS overnight. The following day, the serum was removed from the medium and replaced with 10 ng/mL human bFGF and the growth factor being tested. After 24 hours, bFGF was removed from the medium. These cultures were fed every other day. They were fixed after 7 days of differentiation and immunostained for analysis. The number of neurons was evaluated by counting cells positive for β-tubulin. Cultures maintained in the presence of 10 ng/mL brain derived neurotrophic factor (BDNF) formed approximately 3-fold more neurons than the control cultures. Cultures maintained in neurotrophin-3 (1 ng/mL) formed approximately 2-fold more neurons than control cultures.

With C[S+](C)[O-] [dimethyl sulfoxide] the “expression of hTERT” value (hTERT) was “markedly decreased”.

CN[C@@H]1[C@@H](O)[C@@H](O[C@@H]2[C@@H](O)[C@H](O[C@H]3O[C@H]([C@@H](C)O)[C@@H](O)[C@H](O)[C@H]3N)[C@@H](N)C[C@H]2N)OC[C@]1(C)O [geneticin] was tested, and the “time in which all mock-transfected cultures died” value (H1 hES cells) was 48 to 72 h.

Nc1nc(O)c2ncn(COC(CO)CO)c2n1 [ganciclovir] was tested, and the “effect of ganciclovir treatment on tk+ tumor lines” value [1] was “selective destruction of all tumor lines tested”, the “effect of ganciclovir treatment on normal cells” value (normal BJ cells) was “no effect” and the “optimal GCV concentration” value [2] was ~20 µM. The “toxicity induced by GCV alone, H7 compared with H1” value [3] was “less toxicity” and the “time in which essentially all undifferentiated cells died” value (H9 hES cell line clones) was 1 to 3 days.

B1: brain derived neurotrophic factor (protein, UniProt P23560 19-247, looked up)
Neurotrophic factor BDNF …: APMKEANIRGQGGLAYPGVRTHGTLESVNGPKAGSRGLTSLADTFEHVIEELLDEDQKVRPNEENNKDADLYTSRVMLSSQVPLEPPLLFLLEEYKNYLDAANMSMRVRRHSDPARRGELSVCDSISEWVTAADKKTAVDMSGGTVTVLEKVPVSKGQLKQYFYETKCNPMGYTKEGCRGIDKRHWNSQCRTTQSYVRALTMDSKKRIGWRFIRIDTSCVCTLTIKRGR
notes: neurotrophin growth factor
In the case of B1, the “neurons formed relative to control cultures (cells positive for β-tubulin)” value (hES cells; 10 ng/mL) is reported as “approximately 3 fold”.

B2: neurotrophin-3 (protein, UniProt P20783 139-257, looked up)
Neurotrophin-3: YAEHKSHRGEYSVCDSESLWVTDKSSAIDIRGHQVTVLGEIKTGNSPVKQYFYETRCKEARPVKNGCRGIDDKHWNSQCKTSQTYVRALTSENNKLVGWRWIRIDTSCVCALSRKIGRT
notes: neurotrophin growth factor
With B2 the “neurons formed relative to control cultures (cells positive for β-tubulin)” value (hES cells; 1 ng/mL) was “approximately 2 fold”.
